# Experimental data as given in patent US20050009005A1, “Methods of using quantitative lipid metabolome data” (Lipomics Technologies, Inc., priority 2001, published 2005).
# System: de novo fatty acid synthesis
# Assay: Lipid metabolite profile of plasma, heart, liver and inguinal adipose of CL316,243-treated mice (trial 2; Tables 7 and 8)
# Format: in vivo
# Details: Liver, mean
# From the text: It is understood that the described methods can be used to analyze lipid metabolites from other subjects, including particularly animals other than mice.
# Mouse tissue and plasma samples were a generous donation to Lipomics Technologies, Inc., from Dr. Edward Leiter of the Jackson Laboratory (Bar Harbor, Me.). Samples included the plasma, heart, liver and inguinal adipose of mice treated with pharmaceuticals or their corresponding controls.
# In trial 2, male, inbred NON mice were fed a control with or without the presence of the β-3 adrenergic agonist CL316,243 for four weeks (at 0.001% CL316,243 by weight in the dietary chow).
# In both studies, five treated and five control mice were used. Following the treatments and the killing of the mice, tissues and plasma were taken, chilled to −80 ° C. and shipped to the analysis laboratory at Lipomics Technologies in a frozen state.
# Tissue processing and lipid extraction, including provision of internal standards, was carried out essentially as described in Watkins et al. (J. Lipid Res. Papers in Press, 10.1184/jlf.M200169-JLF200, published August 16, 2002), and in co-owned international application PCT/US02/21426, entitled “GENERATING, VIEWING, INTERPRETING, AND UTILIZING A QUANTITATIVE DATABASE OF METABOLITES,” both of which are incorporated in their entirety herein by reference.
# The separation of lipid classes was performed in some instance by preparative thin-layer chromatography (TLC). To remove any residual metal or other damaging contaminants on the TLC plates, each plate was washed prior to use. Washing the plates is a three-step process that involves impregnating each plate with ethylenediamine tetraacetic acid (EDTA) and rinsing the plates once with methanol and once with chloroform. Each plate is first impregnated with 1 mM EDTA, pH 5.5, by ascending development using the method of Ruiz (J. Lipid Res. 38, 1482-1489, 1997). After each plate was completely developed, it was dried in air overnight. Once dry, each plate was developed in methanol, dried, and developed in chloroform in the same direction as the development with EDTA. The washed plates were then dried in air. Just prior to use, each plate was activated by heating to 110° C. for 10 minutes.
# To prepare the TLC chamber for chromatography, Whatman (Clifton, N.J.) filter paper was cut into 20×80-cm strips and wrapped around the inside wall of a 30×60×10-cm glass development chamber. One hundred milliliters of the appropriate mobile phase was added to the chamber, and the chambers were sealed and allowed to equilibrate. Chambers were considered equilibrated when the solvent front had completely ascended the filter paper. The mobile phase employed for the separation of phospholipid classes (lyso-phospholipids, sphingomyelin, phosphatidylcholine, phosphatidylserine, phosphatidylethanolamine and cardiolipin) was a modification of the solvent system described by Holub and Skeaf (“Nutritional regulation of cellular phosphatidylinositol,” in Methods in Enzymology, ed. Conn, P. M. (Academic Press, Inc., Orlando), pp. 234-243, 1987) consisting of chloroform/methanol/acetic acid/water (100:67:7:4, by volume).
# For the separation of neutral lipid classes (free fatty acids, free sterols, triacylglycerides and cholesterol esters), a solvent system consisting of petroleum ether/diethyl ether/acetic acid (80:20:1, by volume) was used (Mangold, Thin Layer Chromatography—A Laboratory Handbook (Springer-Verlag, New York), 1969).
# After the TLC plate was activated, the sample extracts were spotted onto the activated plate. As a general rule, samples were spotted at an estimated concentration such that no single lipid class was present at more than 25 jig per centimeter of plate width following chromatography. This ensured that the plate was not overloaded and minimized the risk of cross-contamination between lipid classes (cross-contamination is readily identified during sample analysis as each lipid class contains unique internal standards). […]
smiles,measurement,setting,value
"C[C@H](Cc1ccc2c(c1)OC(C(=O)[O-])(C(=O)[O-])O2)NC[C@H](O)c1cccc(Cl)c1.[Na+].[Na+] [CL316,243]",Total nMole of FA,FFA,9555.8 nanomoles per gram
same,14:0,PC,69.0 nanomoles per gram
same,16:0,PC,11221.7 nanomoles per gram
same,16:1n7,PC,358.8 nanomoles per gram
same,18:0,PC,5889.5 nanomoles per gram
same,18:1n7,PC,741.3 nanomoles per gram
same,18:1n9,PC,3855.0 nanomoles per gram
same,Saturates,PC,17292.7 nanomoles per gram
same,Total n7,PC,1100.1 nanomoles per gram
same,Total n9,PC,3964.0 nanomoles per gram
same,Total nMole of FA,PC,19052.2 nanomoles per gram
same,14:0,PE,13.1 nanomoles per gram
same,16:0,PE,4406.0 nanomoles per gram
same,16:1n7,PE,117.9 nanomoles per gram
same,18:0,PE,3777.4 nanomoles per gram
same,18:1n7,PE,247.4 nanomoles per gram
same,18:1n9,PE,1320.6 nanomoles per gram
same,Saturates,PE,8245.4 nanomoles per gram
same,Total n7,PE,365.3 nanomoles per gram
same,Total n9,PE,1376.1 nanomoles per gram
same,Total nMole of FA,PE,9924.9 nanomoles per gram
same,14:0,PL,91.0 nanomoles per gram
same,16:0,PL,16120.7 nanomoles per gram
same,16:1n7,PL,586.5 nanomoles per gram
same,18:0,PL,12438.5 nanomoles per gram
same,18:1n7,PL,1242.7 nanomoles per gram
same,18:1n9,PL,5839.1 nanomoles per gram
same,Saturates,PL,29247.6 nanomoles per gram
same,Total n7,PL,1829.2 nanomoles per gram
same,Total n9,PL,6261.0 nanomoles per gram
same,Total nMole of FA,PL,34731.4 nanomoles per gram
same,14:0,PS/I,19.9 nanomoles per gram
same,16:0,PS/I,898.1 nanomoles per gram
same,16:1n7,PS/I,37.8 nanomoles per gram
same,18:0,PS/I,4313.9 nanomoles per gram
same,18:1n7,PS/I,100.2 nanomoles per gram
same,18:1n9,PS/I,486.8 nanomoles per gram
same,Saturates,PS/I,5283.6 nanomoles per gram
same,Total n7,PS/I,138.0 nanomoles per gram
same,Total n9,PS/I,607.6 nanomoles per gram
same,Total nMole of FA,PS/I,5625.0 nanomoles per gram
same,14:0,TAG,207.9 nanomoles per gram
same,16:0,TAG,6580.5 nanomoles per gram
same,16:1n7,TAG,675.6 nanomoles per gram
same,18:0,TAG,668.7 nanomoles per gram
same,18:1n7,TAG,619.4 nanomoles per gram
same,18:1n9,TAG,7123.9 nanomoles per gram
same,Saturates,TAG,7585.2 nanomoles per gram
same,Total n7,TAG,1295.0 nanomoles per gram
same,Total n9,TAG,7280.9 nanomoles per gram
same,Total nMole of FA,TAG,6910.6 nanomoles per gram
same,14:0,lipid class CE,2.5 percentage of total fatty acids
same,16:0,lipid class CE,27.3 percentage of total fatty acids
same,16:1n7,lipid class CE,4.9 percentage of total fatty acids
same,18:0,lipid class CE,7.1 percentage of total fatty acids
same,18:1n7,lipid class CE,1.8 percentage of total fatty acids
same,18:1n9,lipid class CE,25.4 percentage of total fatty acids
same,Saturates,lipid class CE,39.0 percentage of total fatty acids
same,Total,lipid class CE,100.0 percentage of total fatty acids
same,Total n7,lipid class CE,6.7 percentage of total fatty acids
same,Total n9,lipid class CE,26.9 percentage of total fatty acids
same,14:0,lipid class CL,0.4 percentage of total fatty acids
same,16:0,lipid class CL,4.9 percentage of total fatty acids
same,16:1n7,lipid class CL,1.5 percentage of total fatty acids
same,18:0,lipid class CL,4.7 percentage of total fatty acids
same,18:1n7,lipid class CL,4.4 percentage of total fatty acids
same,18:1n9,lipid class CL,8.7 percentage of total fatty acids
same,Saturates,lipid class CL,10.4 percentage of total fatty acids
same,Total,lipid class CL,25.0 percentage of total fatty acids
same,Total n7,lipid class CL,5.9 percentage of total fatty acids
same,Total n9,lipid class CL,9.4 percentage of total fatty acids
same,14:0,lipid class FFA,1.6 percentage of total fatty acids
same,16:0,lipid class FFA,24.0 percentage of total fatty acids
same,16:1n7,lipid class FFA,3.9 percentage of total fatty acids
same,18:0,lipid class FFA,4.9 percentage of total fatty acids
same,18:1n7,lipid class FFA,2.8 percentage of total fatty acids
same,18:1n9,lipid class FFA,23.7 percentage of total fatty acids
same,Saturates,lipid class FFA,31.2 percentage of total fatty acids
same,Total,lipid class FFA,100.0 percentage of total fatty acids
same,Total n7,lipid class FFA,6.7 percentage of total fatty acids
same,Total n9,lipid class FFA,24.2 percentage of total fatty acids
same,14:0,lipid class PC,0.2 percentage of total fatty acids
same,16:0,lipid class PC,29.4 percentage of total fatty acids
same,16:1n7,lipid class PC,0.9 percentage of total fatty acids
same,18:0,lipid class PC,15.5 percentage of total fatty acids
same,18:1n7,lipid class PC,1.9 percentage of total fatty acids
same,18:1n9,lipid class PC,10.1 percentage of total fatty acids
same,Saturates,lipid class PC,45.4 percentage of total fatty acids
same,Total,lipid class PC,50.0 percentage of total fatty acids
same,Total n7,lipid class PC,2.9 percentage of total fatty acids
same,Total n9,lipid class PC,10.4 percentage of total fatty acids
same,14:0,lipid class PE,0.1 percentage of total fatty acids
same,16:0,lipid class PE,22.2 percentage of total fatty acids
same,16:1n7,lipid class PE,0.6 percentage of total fatty acids
same,18:0,lipid class PE,19.1 percentage of total fatty acids
same,18:1n7,lipid class PE,1.2 percentage of total fatty acids
same,18:1n9,lipid class PE,6.6 percentage of total fatty acids
same,Saturates,lipid class PE,41.5 percentage of total fatty acids
same,Total,lipid class PE,50.0 percentage of total fatty acids
same,Total n7,lipid class PE,1.8 percentage of total fatty acids
same,Total n9,lipid class PE,6.9 percentage of total fatty acids
same,14:0,lipid class PL,0.1 percentage of total fatty acids
same,16:0,lipid class PL,23.2 percentage of total fatty acids
same,16:1n7,lipid class PL,0.8 percentage of total fatty acids
same,18:0,lipid class PL,17.9 percentage of total fatty acids
same,18:1n7,lipid class PL,1.8 percentage of total fatty acids
same,18:1n9,lipid class PL,8.4 percentage of total fatty acids
same,Saturates,lipid class PL,42.1 percentage of total fatty acids
same,Total,lipid class PL,50.0 percentage of total fatty acids
same,Total n7,lipid class PL,2.6 percentage of total fatty acids
same,Total n9,lipid class PL,9.0 percentage of total fatty acids
same,14:0,lipid class PS/I,0.2 percentage of total fatty acids
same,16:0,lipid class PS/I,8.0 percentage of total fatty acids
same,16:1n7,lipid class PS/I,0.3 percentage of total fatty acids
same,18:0,lipid class PS/I,38.4 percentage of total fatty acids
same,18:1n7,lipid class PS/I,0.9 percentage of total fatty acids
same,18:1n9,lipid class PS/I,4.3 percentage of total fatty acids
same,Saturates,lipid class PS/I,47.0 percentage of total fatty acids
same,Total,lipid class PS/I,50.0 percentage of total fatty acids
same,Total n7,lipid class PS/I,1.2 percentage of total fatty acids
